Test results from patent publication US20040161415A1, “Antitumor and antiviral medications and method for producing the same” (Lymphotec Inc., priority 2001, published 2004).

Test system: EL-4 cells (mouse-derived cancer cells)
Test: Measurement of antitumor effect: survival of C57BL/6 mice after intraperitoneal injection of EL-4 cells
Assay type: in vivo
Conditions: for Number of surviving mice: C57BL/6 mice with 5×10^4 EL-4 cells i.p., reserpine 200 μg/kg s.c. every four days
Method: Lymphocytes were collected from the spleen of a C57BL/6 mouse by first aseptically taking out the spleen, and mashing up the spleen with a pair of tweezers in a culture dish having a culture solution containing blood serum from cattle embryo The solution including the flaked spleen was filtrated through a mesh to obtain lymphocyte suspension. The lymphocyte suspension was transferred by 50 ml to a centrifuging tube with a pipette and centrifuged at 1500 rpm for 10 minutes.
After centrifugation, supernatant fluid was removed, and a culture solution was added to obtain 2×10^6/ml of solution. The resultant solution thus obtained was transferred to a culture dish containing solid-phase anti-CD3 antibody from a mouse and further cultivated for 4 days on a continuing basis. The resultant solution was farther rinsed with phosphate buffer (occasionally abbreviated as PBS) two times, thus to prepare lymphocytes before heating treatment.
After cultivating EL-4 cells (mouse-derived cancer cells) at 37° C. in an atmosphere of 5% carbon dioxide gas in a flask for 3 days, 50 ml of culture solution containing El-4 cells were transferred to a centrifuging tube with a pipette and centrifuged at 1500 rpm for 10 minutes. After centrifugation, supernatant fluid was removed, and pH-adjusted RPMI1640 culture medium was added thereto, and brought into suspension. Then, the resultant solution thus obtained was again centrifuged at 1500 rpm for 10 minutes, and hereafter, supernatant fluid was removed. Again supernatant fluid was removed, and the pH-adjusted RPMI1640 culture medium prepared previously was added thereto, and brought into suspension. Into the abdominal cavity of each C57BL/6 mouse, 5×10^4 of EL-4 cells in the ultimate solution resultantly obtained was injected to introduce the cancer cells thereinto.
After introducing the EL-4 cells, 3×10^6 of activated lymphocytes treated with heat, which were prepared in Example 1 described above were administered intravenously with administering subcutaneously reserpine thereto. To each mouse of a subject group, reserpine was subcutaneously given by 200 μg/kg every four days together with the […] lymphocytes, and to another control group composed of twelve mice, only the reserpine was given by 200 μg/kg every four days. The reserpine of Rauwolfia serpentina extract was used in this embodiment, but it may be made from a compound extracted from Rauwolfia serpentina or other compounds. Although the reserpine solely may be used as mentioned above, but it may be used as a secondary agent with other primary additives.

COC(=O)[C@H]1[C@H]2C[C@@H]3c4[nH]c5cc(OC)ccc5c4CCN3C[C@H]2C[C@@H](OC(=O)c2cc(OC)c(OC)c(OC)c2)[C@@H]1OC [Resrpine, reserpine]
Number of surviving mice (lapsed days 23): 12
Number of surviving mice (lapsed days 24): 12
Number of surviving mice (lapsed days 25): 12
Number of surviving mice (lapsed days 26): 11
Number of surviving mice (lapsed days 27): 11
Number of surviving mice (lapsed days 28): 11
Number of surviving mice (lapsed days 29): 9
Number of surviving mice (lapsed days 30): 8
Number of surviving mice (lapsed days 31): 8
Number of surviving mice (lapsed days 32): 6
Number of surviving mice (lapsed days 33): 6
Number of surviving mice (lapsed days 34): 4
Number of surviving mice (lapsed days 35): 3
antitumor effect (survival rate of mice observed with time) (result in words, summary of Table 1, EL-4 bearing C57BL/6 mice): brings about an antitumor effect
